Data from the supplement of paper PMC10307832.

Tests used:
Experiment in all cases: relative viability (nuclei count vs DMSO), 5 days (fraction); higher = more cells survive
SK-MES-1 = conditions: first compound 0.02 µM
Outline: (§1)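 After 5 days of treatment, lung cancer cells in 1536-well plates were fixed and stained in a single step (final 0.05% Triton X-100, 1% formaldehyde, 1 ug/ml Hoechst) and their nuclei counted on 4× images. Treatment had been applied by pin tool the day after seeding as one drug alone or as a fixed anchor-drug dose with five library-drug doses (not always all listed) in √10 steps. Relative viability is the nuclei count of treated wells divided by that of vehicle wells, and values are medians of duplicate plates.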

NCI-H596 = test system: NCI-H596
Outline: as §1

HOP-62 = test system: HOP-62
Outline: as §1

A-427 = test system: A-427
Outline: as §1

LK-2 = test system: LK-2
Outline: as §1

SW 1573 = test system: SW 1573
Outline: as §1

LXF-289 = test system: LXF-289
Outline: as §1

ABC-1 = test system: ABC-1
Outline: as §1

NCI-H2009 = test system: NCI-H2009
Outline: as §1

NCI-H727 = test system: NCI-H727
Outline: as §1

SW 900 = test system: SW 900
Outline: as §1

CC(=O)O[C@@]12CO[C@@H]1C[C@H](O)[C@@]1(C)C(=O)[C@H](O)C3=C(C)[C@@H](OC(=O)[C@H](O)[C@@H](NC(=O)OC(C)(C)C)c4ccccc4)C[C@@](O)([C@@H](OC(=O)c4ccccc4)[C@H]21)C3(C)C [Docetaxel] + COc1cc2c(Oc3ccc(NC(=O)C4(C(=O)Nc5ccc(F)cc5)CC4)cc3F)ccnc2cc1OCCCN1CCOCC1 [Foretinib] (partner 0.25 µM)
relative viability (SK-MES-1): 0.168 | relative viability (NCI-H596; first compound 0.0002 µM): 0.901 | relative viability (NCI-H596; first compound 0.000632 µM): 0.51 | relative viability (NCI-H596; first compound 0.002 µM): 0.419 | relative viability (NCI-H596; first compound 0.006325 µM): 0.365 | relative viability (NCI-H596; first compound 0.02 µM): 0.217 | relative viability (HOP-62; first compound 0.0002 µM): 1.07 | relative viability (HOP-62; first compound 0.000632 µM): 0.732 | relative viability (HOP-62; first compound 0.002 µM): 0.427 | relative viability (HOP-62; first compound 0.006325 µM): 0.295 | relative viability (A-427; first compound 0.0002 µM): 1 | relative viability (A-427; first compound 0.000632 µM): 1.04 | relative viability (A-427; first compound 0.002 µM): 0.686 | relative viability (A-427; first compound 0.006325 µM): 0.261 | relative viability (A-427; first compound 0.02 µM): 0.176 | relative viability (LK-2; first compound 0.0002 µM): 1.02 | relative viability (LK-2; first compound 0.000632 µM): 0.948 | relative viability (LK-2; first compound 0.002 µM): 0.348 | relative viability (LK-2; first compound 0.006325 µM): 0.188 | relative viability (LK-2; first compound 0.02 µM): 0.14 | relative viability (SW 1573; first compound 0.0002 µM): 0.719 | relative viability (SW 1573; first compound 0.000632 µM): 1.06 | relative viability (SW 1573; first compound 0.002 µM): 0.342 | relative viability (SW 1573; first compound 0.006325 µM): 0.193 | relative viability (SW 1573; first compound 0.02 µM): 0.2 | relative viability (LXF-289; first compound 0.0002 µM): 0.977 | relative viability (LXF-289; first compound 0.000632 µM): 0.924 | relative viability (LXF-289; first compound 0.002 µM): 0.207 | relative viability (LXF-289; first compound 0.006325 µM): 0.147 | relative viability (LXF-289; first compound 0.02 µM): 0.0982 | relative viability (ABC-1; first compound 0.0002 µM): 1.16 | relative viability (ABC-1; first compound 0.000632 µM): 1.18 | relative viability (ABC-1; first compound 0.002 µM): 0.333 | relative viability (ABC-1; first compound 0.006325 µM): 0.351 | relative viability (ABC-1; first compound 0.02 µM): 0.216 | relative viability (NCI-H2009; first compound 0.0002 µM): 1.18 | relative viability (NCI-H2009; first compound 0.000632 µM): 1.26 | relative viability (NCI-H2009; first compound 0.002 µM): 0.952 | relative viability (NCI-H2009; first compound 0.006325 µM): 0.467 | relative viability (NCI-H2009; first compound 0.02 µM): 0.304 | relative viability (NCI-H727; first compound 0.0002 µM): 0.834 | relative viability (NCI-H727; first compound 0.000632 µM): 0.693 | relative viability (NCI-H727; first compound 0.002 µM): 0.788 | relative viability (NCI-H727; first compound 0.006325 µM): 0.507 | relative viability (NCI-H727; first compound 0.02 µM): 0.346 | relative viability (SW 900; first compound 0.0002 µM): 0.816 | relative viability (SW 900; first compound 0.000632 µM): 0.407 | relative viability (SW 900; first compound 0.002 µM): 0.249 | relative viability (SW 900; first compound 0.006325 µM): 0.247 | relative viability (SW 900; first compound 0.02 µM): 0.175
